Source: US20260109727A1, “RNA CONSTRUCTS AND USES THEREOF” (BioNTech SE, priority 2022, published 2026)
“Also recorded” adds a separate entry of the source.

Test system: BALB/c mice
Experiment: Hematocrit in mice IV injected with 3 μg TransIT-complexed EPO mRNA
Type: in vivo
Method: To confirm in vitro data, female BALB/c mice from Jackson Laboratory (Bar Harbor, ME, USA) at the age of eight to ten weeks were used for in vivo experiment in accordance with federal policies on animal research (Ethics approval number: G18-12-027). Mice (n=3/group) were injected intravenously (i.v.) with 3 μg TransIT-complexed (Mirus Bio) EPO mRNAs in a final volume of 200 μL Dulbecco's modified Eagle medium (DMEM). Mice used as controls were injected with TransIT-reagent diluted in DMEM but without RNA. Mice were injected with EPO mRNA complexed with TransIT-reagent and EPO levels in plasma were measured using ELISA (FIG. 8A). Hematocrit was measured from 18 μl of blood that was collected at the indicated times using centrifugation in Drummond microcaps glass capillary tubes (20 μl volume, Merck, Germany) as described (20) (FIG. 8B). After determination of the hematocrit, capillary tubes were snapped open, and the plasma was collected to measure EPO levels and analyzed for mouse Erythropoietin DuoSet ELISA kit (R&D Systems) according to the manufacturer's instructions. […] EPO RNA containing m1Ψ translated two-fold more than U-containing mRNA at each time points (FIG. 8A). Both compound I′-1 and compound I′-6 are suitable for translation of the encoded protein and each cap analog can be used for synthesizing of non-replicating functional mRNAs (FIG. 8A, 8B).
In each in vivo experiment in order to measure the translational efficiency and to determine the functionality of EPO mRNA capped with I′-1, I′-2, I′-3, I′-5, I′-6, I′-9, I′-12, I′-13, I′-16, CC114, and CC413 in vivo, female BALB/c mice from Jackson Laboratory (Bar Harbor, ME, USA) at the age of eight to ten weeks were used for in accordance with federal policies on animal research (Ethics approval number: G19-12-074). In each case, mice (n=3/group) were injected intravenously (i.v.) with 3 μg TransIT-complexed (Mirus Bio) EPO mRNAs in a final volume of 200 μL Dulbecco's modified Eagle medium (DMEM). Mice used as controls were injected with TransIT-reagent diluted in DMEM but without RNA. To measure hematocrits and EPO levels in the individual mice that were injected with EPO mRNA capped with I′-6, I′-1, CC114, and CC413 and complexed with TransIT-reagent, 18 μL of blood was collected at the indicated times (FIG. 8B) and centrifuged in Drummond microcaps glass capillary tubes (20 μl volume, Merck, Germany) as described (19). After determination of the hematocrit, capillary tubes were snapped open, and the plasma was collected to measure EPO levels and analyzed for mouse Erythropoietin DuoSet ELISA kit (R&D Systems) according to the manufacturer's instructions. […] EPO RNA containing m1Ψ modifications translated 2-3-fold, 5-fold, and 10-fold more than U-containing mRNAs at 6-24, 48 and 72 hours after injections, respectively. (FIG. 8A). […] To address translation of I′-6-capped mRNA in human primary hepatocytes, EPO level was measured from supernatants transfected using 0.1 μg/well TransIT-formulated I′-6- or CC114-capped uRNA (FIG. 13).

Structure (SMILES): COC1C(OP(=O)(O)OC[C@H]2O[C@@H](c3cn(C)c(=O)[nH]c3=O)C(O)C2O)[C@@H](COP(=O)(O)OP(=O)([O-])OP(=O)(O)OC[C@H]2O[C@@H](n3c[n+](C)c4c(O)nc(N)nc43)C(O)C2OC)O[C@H]1n1cnc2c(N)ncnc21 (stereo partly drawn) [I′-6, m^7G(^3′-OMe)pppA(2′-OMe)pm^1Ψ]
- hematocrit value at 21 days compared with CC413-capped mRNA (21 days after administration): at the same level as the values of D7 and D14
- decrease of hematocrit values from D14 (D14 after injection): not observed
- hematocrit values (up to day 21 after injection): very high and further increased after day 14; also recorded: remained very high level
